# Entries after “also recorded” stand apart in the source; their conditions may differ.
# Legend:
# C-jun = C-jun expression in HT29 cells, western blot; assay type: cell-based, human; details: 10 and 20 μM, 24 hr
# Experimental: The effect of paroxetine and sertraline on the expression of bcl-2 and C-jun was evaluated in human colon HT29 cell-line 24 hr after drug administration, using western blot analysis for C-jun and bcl-2 and specific antibodies.
# [1] = tested on: ConA-induced mouse splenocytes; test: Con-A-induced mouse splenocyte proliferation/viability, alamar blue; assay type: cell-based; details: 48 hr
# Experimental: Mouse splenocytes were isolated from C57b1 healthy female mice. Cells (10,000/well) were tested under basal and ConA stimulation. Cells were treated with vehicle, dexamethasone or antidepressants (2.5-10 μM). Viability was assessed 48 hr later using alamar blue staining. (Reagents were manufactured by Wildflower, Santa Fe, N. Mex., USA.) Alamar blue assay was performed as in Nociari et al (1998).
# Effect of paroxetine, (SSRI) and clomipramine (TCA) as compared to dexamethasone on Con-A-induced splenocyte proliferation (alamar blue method), and splenocyte-induced secretion of TH1 cytokines TNF-α, IL2 and INFγ, 1×10^6 cells/well, was measured 48 hours after exposure to drugs (2.5-10 μM).
# In particular, mouse splenocytes were isolated from C57BL healthy female mice. Cells (10,000/well) were then exposed to Con-A (5 μM) and treated with either the vehicle, with dexamethasone or with a drug (2.5-10 μM).
# Cell viability was assessed 48 hr later using Alamar blue staining. The results are presented in FIG. 4, where each point is the graph represents the mean of 4 determinations. […]. The IC50 determined for the antidepressant drugs was in the range of 2.5-5.5 μM.
# Cells were treated with vehicle, or the antidepressants (2.5-20 μM). Viability was assessed 48 hours later using alamar blue staining. (Each point is the mean+/−SEM of 4 determinations).
# [2] = tested on: splenocytes derived from treated mice; test: ConA/basal proliferation ratio of splenocytes from mice treated in vivo for 7 days; parameters: species or system mouse; details: paroxetine 7.5, clomipramine 15 mg/kg x3/week i.p., Con A 5 μM in vitro
# Experimental: Paroxetine or clomipramine were administered at 7.5 and 15 mg/kg x3/week i.p, respectively. Splenocytes were derived from treated animals.
# Each group represents the mean of a pool of 5 animals.
# human lymphocytes (PBMC) = test: PHA-induced human lymphocyte proliferation, alamar blue; assay type: cell-based; details: PHA 2.5 μg/ml, 48 hours
# Experimental: Human blood mononuclear cells (PBMC) were isolated from whole blood of 3 healthy volunteers using Ficoll-Paque gradient (Amersham Sweden). Lymphocyte proliferation was induced by exposure of 1×10^6 cells/well to phytohemagglutinin (PHA) (2.5 μg/ml). Cells were exposed to PHA and treated with vehicle or with paroxetine (2.5-10.0 μM). Cell viability was assessed 48 hours post exposure to paroxetine (2.5-10.0 μM) using Alamar blue reagent (Wildflower, Santa Fe, N. Mex., USA) according to Nociari et al (1998).
# [3] = tested on: DSS-induced acute colitis; test: Rat model of DSS-induced acute colitis; assay type: in vivo; details: for number of days with significant DAI difference vs control: 9 days in water-treated DSS group
# Experimental: Potential anti-IBD effect of two different doses of paroxetine, namely 0.2% and 0.4% was assessed in the rat model of DSS-induced acute colitis (DSS—dextran sulfate sodium). The use of DSS is a well-defined method for the induction of colitis' in animals. DSS can be controlled more precisely regarding molecular weight distribution, grade of sulfate incorporation and impurities than other agents typically used to achieve the same clinical end-point. This reagent model is suitable for screening of new drugs as it uses small animals, the oral administration of the agent is convenient to use in large groups of animals and the induced colitis responds to treatment with conventional drugs (see for example Axelsson et al, 1993).
# Paroxetine (oral suspension, protected from light at or below 25° C.) was administered at two respective doses of 7.5 and 15 mg/kg by one daily repeated oral gavage (PO) for 16 days. Colitis induction commenced two days following initiation of treatment by continuous exposure ad libitum of the test animals to 3% DSS (36-50 kDa) in their drinking water (chlorinated and acidified, pH range of 5.1-5.9, freshly prepared on even test days). […] Two additional paroxetine-treated non-DSS induced groups were likewise treated with the same selected does to detect any unforeseen paroxetine related effects. Test groups comprised either n=8 (DSS induced) or n=4 (non-DSS induced) male Sprague Dawley (SD) rats (healthy, young […] weeks of age, total of 36 animals).
# Evaluation of anti-IBD effect was based on the following […] parameters: a. Daily clinical scoring of the characteristic experimental colitis signs, consisting of body weight loss, altered fecal consistency and hematochezia and expressed as Disease Activity Index (DAI); b. Body weight determination; c. Colon length; d. Macroscopic colon lesions scores noted at necropsy; and e. microscopic colon lesions score.
# The histological scoring system for the 3% DSS-induced colonic inflammation is shown below in Tables 1 and 2:
# Final data evaluation was carried out by statistical analysis of differences between mean group values for each of the above listed parameters in the DSS-induced groups vs. respective mean values in the water-treated non-DSS induced group.
structure (smiles),measurement,setting,value
Fc1ccc([C@@H]2CCNC[C@H]2COc2ccc3c(c2)OCO3)cc1 [paroxetine],expression of C-jun,C-jun,stimulation
same,ConA (mitogen)-induced splenocyte proliferation,"[1]; 2.5-10 μM, alamar blue",dose dependent decrease; also recorded: dose-dependent decrease
same,cell viability compared to dexamethasone,"[1]; Con-A 5 μM, drug 2.5-10 μM",decreased cell viability to the same extent as compared to dexamethasone
same,capacity to respond to Con-A (ratio ConA/basal) vs vehicle treated mice,[2],not
same,IC50,human lymphocytes (PBMC),5 to 10 µM
same,mean body weight vs respective control,"[3]; both doses (7.5 and 15 mg/kg PO), DSS-induced",did not reach statistical significance
same,mean colon length vs water-treated non-DSS induced group,"[3]; both doses, p<0.05",significantly shorter
same,medians of histopathological scores (lateral and in-depth extension),"[3]; both doses, differences not statistically significant",lower than for the control group
same,day of peak DAI score,[3]; both paroxetine-treated DSS-induced groups,10 days
same,mean macroscopic colon score vs control,[3]; high dose,did not significantly differ
same,number of days with significant DAI difference vs control,[3]; high paroxetine dose,6 days
same,mortality,[3]; high-dose (15 mg/kg PO) DSS-induced group,No mortality
same,mean macroscopic colon score vs control,"[3]; low dose, p<0.01",significantly higher
same,number of days with significant DAI difference vs control,[3]; low paroxetine dose,5 days
same,overall anti-IBD effect,"[3]; oral suspension, 7.5 and 15 mg/kg",trend of anti-IBD effect with a dose-response
same,mortality,"[3]; the dose paroxetine-treated DSS-induced group, n=8, PO daily 16 days",one

# From patent US20080318931A1, “Treatment of Disorders and Diseases of the Colon” (priority 2004, published 2008)
